Earlier results as cited in PMC3172588 (Organic & Biomolecular Chemistry, 2010).

Experiments:
[1] = target: sea urchin cADPR receptor (sea urchin egg homogenate, SUH)
[2] = system: T cell-cADPR receptor (permeabilised Jurkat T-cells, JTC); conditions: class in words; ref [8],[17],[23],[36]

8-Cl-cADPcR [8-Cl-cADPcR (5)]
EC50 ([1]; read-out: Activity in SUH: agonist EC50, Table 3, compounds synthesized by Shuto's group, ref [15],[38],[51],[52]): 19 µM

[N-]=[N+]=Nc1nc2c(=N)n3cnc2n1C1OC(COP(=O)(O)OP(=O)(O)OCC2OC3C(O)C2O)C(O)C1O (stereo not shown) [8-azido-cADPR]
Activity in SUH (running text, literature) ([1]; class in words, ref [8],[13],[17],[23],[32],[36],[38]): antagonists

O=c1c2nc(Br)n3c2ncn1[C@@H]1O[C@H](COP(=O)(O)OP(=O)(O)OC[C@H]2O[C@@H]3[C@H](O)[C@@H]2O)[C@@H](O)[C@H]1O [8-Bromo cIDPR]
Activity in T cells / JTC (running text, literature) [2]: agonist activity

3-deaza cADPR
times more potent than cADPR in SUH ([1]; agonist, ref [20]): 70 times
